Columns and labels:
[1] = system: B16 mouse melanoma lung metastases; assay: B16 mouse melanoma lung metastases model with cisplatin; format: in vivo, C57/BL/6 mice; details: agent alone
Excerpt: FIGS. 5A-H. Chemosensitization of B16 mouse lung metastases to cisplatin (CDDP) by systemically delivered, tumor-targeted adenoviral-p53. The metastases were induced in normal, syngeneic C57/Bl/6 mice by the intravenous injection of 1×10^5 cells. Four days later treatment was begun. Tf-Adp53 and control Tf-AdLacZ were produced at the ratio of 1.5×10^5 Tf molecules/virion. 1×10^10 viral particles/mouse/injection (equivalent to 3×10^8 pfu) of either Adp53, Tf-Adp53 or Tf-AdLacZ were i.v. administered 3 times/week to a total of 12-13 doses. CDDP was intraperitoneally injected at 3-5 mg/kg every 2-4 days for a total of 8-13 doses. The lungs were excised from the animals after one round of treatment. Lungs from animal treated with: No treatment (FIGS. 5A and 5E); CDDP alone (FIG. 5B); untargetted Ad-p53 plus CDDP (FIG. 5C); Tf-LacZ plus CDDP (FIG. 5F); Tf-Adp53 alone (FIG. 5G); Tf-Adp53 plus CDDP (FIGS. 5D and 5H).
The ability of the ligand-targeted, viral p53 delivery system to sensitize tumor cells to chemotherapy in an immune competent animal model was examined. The model chosen for these studies was the B16 mouse melanoma lung metastases model. In multiple experiments, B16 cells were injected, via the tail vein into immune-competent C57/BL/6 mice. In this model, tumor colonies in the lung are easily visible within two-three weeks, due to the expression of melanin by the tumor cells. […]

[2] = system: MDA-MB-435 xenograft tumors; assay: MDA-MB-435 xenograft tumor growth with docetaxel (Taxotere); format: in vivo, athymic nude (NCr nu-nu) mice; details: agent alone
Excerpt: Additionally, since chemotherapy is often the treatment of choice for breast cancer, this experiment tested the ability of the delivery system of this invention to sensitize established human breast cancer xenograft tumors to the commonly used chemotherapeutic agent docetaxel (Taxotere). Xenografts were induced in 4-6 week old female athymic nude (NCr nu-nu) mice by the subcutaneous injection of 2.5×10^6 MDA-MB-435 cells in the mammary fat pad of each animal. Tumors were allowed to develop to a size of 40-50 mm^3. The targeted adenovirus, designated Tf Adp53, was prepared by mixing transferrin with adenovirus carrying DNA encoding wt p53 as described in Example 1. The animals were divided into five groups: (i) Untreated (−) Taxotere; (ii) Taxotere alone, (iii) Untargeted Adp53 (+) Taxotere; (iv) Targeted Adp53 (−) Taxotere; (v) Targeted Adp53 (+) Taxotere. The mice were i.v. injected, via the tail vein, every three to four days with 5×10^10 pt/mouse/injection of either targeted (an admixture of Tf ligand and virus was injected) or untargeted (no ligand) Adp53. A total of 12 injections were administered. The day after the initial viral injection, drug treatment was started. The animals were given Taxotere i.v. at a dose of 7.5 mg/kg every three or four days to a total of 11 injections. The tumor sizes were measured weekly in a blinded manner on a total of 6-8 tumors/group. […]

Compound | effect on lung tumor colonies compared to untreated animals [1] | effect on tumor growth [2]
[NH2][Pt]([NH2])([Cl])[Cl] [CDDP, cisplatin] | some effect | –
CC(=O)O[C@@]12CO[C@@H]1C[C@H](O)[C@@]1(C)C(=O)[C@H](O)C3=C(C)[C@@H](OC(=O)[C@H](O)[C@@H](NC(=O)OC(C)(C)C)c4ccccc4)C[C@@](O)([C@@H](OC(=O)c4ccccc4)[C@H]21)C3(C)C [Taxotere, docetaxel] | – | some growth inhibition
